What follows are compounds tested on progranulin (assay: Progranulin induction cellular assay (ELISA of secreted mouse PGRN)). Details: Mus musculus, BV-2, read-out: EC50 μM.
Assay type: cell-based
Procedure: Cellular Assays: Progranulin induction assay. To measure the efficacy of compounds, a progranulin induction cellular assay in mouse primary microglia (pMG), primary cortical neurons, and BV-2 cell lines is used. BV-2 cells are split the day before plating into a 96 well plate format at approximately 80%. Cells should be plated the day before and allowed for 1 hour attachment period and for 16 hour incubation. Levels of progranulin secreted into the cell culture medium or retained in the cell lysate can be quantified using an ELISA-based readout and measurement of secreted mouse PGRN in the medium was assessed by the methodology published by Ghidoni et al. 2012. Standard ELISA kits to measure PGRN are available from vendors such as Adipogen, R&D, and Biovendor.
Table B below presents the results of a progranulin induction assay as described above.

Point of comparison: `CCNC[C@]1(O)CO[C@H](C(=O)N2CCc3ccccc3[C@@H]2c2ccc(F)cc2)C1` [Compound 5024, ((2S,4S)-4-((ethylamino)methyl)-4-hydroxytetrahydrofuran-2-yl)((S)-1-(4-fluorophenyl)-3,4-dihydroisoquinolin-2(1H)-yl)methanone], EC50 0.749 µM. Against it:
- CCNC[C@@]1(O)CO[C@H](C(=O)N2CCc3ccccc3[C@@H]2c2ccc(F)cc2)C1 [Compound 5031, ((2S,4R)-4-((ethylamino)methyl)-4-hydroxytetrahydrofuran-2-yl)((S)-1-(4-fluorophenyl)-3,4-dihydroisoquinolin-2(1H)-yl)methanone] — 2.3-fold lower, 0.326 µM

Same assay, conditions: progranulin induction assay; mouse pMG, primary cortical neurons and BV-2 cell lines named, cell type not given; ELISA-based readout; read-out: EC50

Point of comparison: `NC[C@H]1CC[C@H](C(=O)N2CCc3ccccc3[C@@H]2c2ccc(F)cc2)O1` [Compound 5002, ((2R,5R)-5-(aminomethyl)tetrahydrofuran-2-yl)((S)-1-(4-fluorophenyl)-3,4-dihydroisoquinolin-2(1H)-yl)methanone], EC50 0.278 µM. Against it:
- NCC1COC(C(=O)N2CCc3ccccc3[C@@H]2c2ccc(F)cc2)C1 (stereo in doubt) [Compound 5008, ((2S,4S)-4-(aminomethyl)tetrahydrofuran-2-yl)((S)-1-(4-fluorophenyl)-3,4-dihydroisoquinolin-2(1H)-yl)methanone] — within 1.5-fold, 0.369 µM
- NCC1COC(C(=O)N2CCc3ccccc3[C@@H]2c2ccc(F)cc2)C1 (stereo in doubt) [Compound 5009, ((2S,4R)-4-(aminomethyl)tetrahydrofuran-2-yl)((S)-1-(4-fluorophenyl)-3,4-dihydroisoquinolin-2(1H)-yl)methanone] — within 1.5-fold, 0.37 µM
- N[C@H]1COC(C(=O)N2CCc3ccccc3[C@@H]2c2ccc(F)cc2)C1 (stereo in doubt) [Compound 5010, ((2S,4R)-4-aminotetrahydrofuran-2-yl)((S)-1-(4-fluorophenyl)-3,4-dihydroisoquinolin-2(1H)-yl)methanone] — 2.1-fold higher, 0.573 µM
- N[C@@H]1COC(C(=O)N2CCc3ccccc3[C@@H]2c2ccc(F)cc2)C1 (stereo in doubt) [Compound 5011, ((2S,4S)-4-aminotetrahydrofuran-2-yl)((S)-1-(4-fluorophenyl)-3,4-dihydroisoquinolin-2(1H)-yl)methanone] — 6-fold higher, 1.66 µM
- N[C@H]1COC(C(=O)N2CCc3ccccc3[C@@H]2c2ccc(F)cc2)C1 (stereo in doubt) [Compound 5012, ((2R,4R)-4-aminotetrahydrofuran-2-yl)((S)-1-(4-fluorophenyl)-3,4-dihydroisoquinolin-2(1H)-yl)methanone] — 2.2-fold lower, 0.125 µM
- N[C@@H]1COC(C(=O)N2CCc3ccccc3[C@@H]2c2ccc(F)cc2)C1 (stereo in doubt) [Compound 5013, ((2R,4S)-4-aminotetrahydrofuran-2-yl)((S)-1-(4-fluorophenyl)-3,4-dihydroisoquinolin-2(1H)-yl)methanone] — within 1.5-fold, 0.323 µM
- NC1CCC(C(=O)N2CCc3ccccc3[C@@H]2c2ccc(F)cc2F)OC1 (stereo in doubt) [Compound 5018, ((2R,5S)-5-aminotetrahydro-2H-pyran-2-yl)((R)-1-(2,4-difluorophenyl)-3,4-dihydroisoquinolin-2(1H)-yl)methanone] — higher, > 10 µM
- N[C@@]12CC[C@@](C(=O)N3CCc4ccccc4C3c3ccc(F)cc3)(C1)OC2 (stereo in doubt) [Compound 5020, (4-amino-2-oxabicyclo[2.2.1]heptan-1-yl)((S)-1-(4-fluorophenyl)-3,4-dihydroisoquinolin-2(1H)-yl)methanone] — 3.8-fold higher, 1.06 µM
- N[C@@]12CC[C@@](C(=O)N3CCc4ccccc4[C@H]3c3ccc(F)cc3)(C1)OC2 (stereo in doubt) [Compound 5022, (4-amino-2-oxabicyclo[2.2.1]heptan-1-yl)((S)-1-(4-fluorophenyl)-3,4-dihydroisoquinolin-2(1H)-yl)methanone] — 15-fold higher, 4.16 µM
- NCC1(O)CCO[C@@H](C(=O)N2CCc3ccccc3[C@@H]2c2ccc(F)cc2)C1 (stereo in doubt) [Compound 5540, ((2R,4R)-4-(aminomethyl)-4-hydroxytetrahydro-2H-pyran-2-yl)((S)-1-(4-fluorophenyl)-3,4-dihydroisoquinolin-2(1H)-yl)methanone] — within 1.5-fold, 0.21 µM
- NC[C@@H]1CC[C@H](C(=O)N2CCc3ccccc3[C@@H]2c2ccc(F)cc2)O1 [Compound 5000, ((2R,5S)-5-(aminomethyl)tetrahydrofuran-2-yl)((S)-1-(4-fluorophenyl)-3,4-dihydroisoquinolin-2(1H)-yl)methanone] — within 1.5-fold, 0.41 µM
- NC[C@H]1CC[C@@H](C(=O)N2CCc3ccccc3[C@@H]2c2ccc(F)cc2)O1 [Compound 5001, ((2S,5R)-5-(aminomethyl)tetrahydrofuran-2-yl)((S)-1-(4-fluorophenyl)-3,4-dihydroisoquinolin-2(1H)-yl)methanone] — within 1.5-fold, 0.244 µM
- NC[C@@H]1CC[C@@H](C(=O)N2CCc3ccccc3[C@@H]2c2ccc(F)cc2)O1 [Compound 5003, ((2S,5S)-5-(aminomethyl)tetrahydrofuran-2-yl)((S)-1-(4-fluorophenyl)-3,4-dihydroisoquinolin-2(1H)-yl)methanone] — 1.8-fold higher, 0.509 µM
- COCCN[C@H]1CC[C@@H](C(=O)N2CCc3ccccc3[C@@H]2c2ccc(F)cc2)OC1 [Compound 5029, ((S)-1-(4-fluorophenyl)-3,4-dihydroisoquinolin-2(1H)-yl)((2S,5S)-5-((2-methoxyethyl)amino)tetrahydro-2H-pyran-2-yl)methanone] — within 1.5-fold, 0.37 µM
- COCCN[C@H]1CC[C@H](C(=O)N2CCc3ccccc3[C@@H]2c2ccc(F)cc2)OC1 [Compound 5030, ((S)-1-(4-fluorophenyl)-3,4-dihydroisoquinolin-2(1H)-yl)((2R,5S)-5-((2-methoxyethyl)amino)tetrahydro-2H-pyran-2-yl)methanone] — within 1.5-fold, 0.348 µM
- O=C([C@@H]1CC[C@@H](NCCO)CO1)N1CCc2ccccc2[C@@H]1c1ccc(F)cc1 [Compound 5032, ((S)-1-(4-fluorophenyl)-3,4-dihydroisoquinolin-2(1H)-yl)((2S,5R)-5-((2-hydroxyethyl)amino)tetrahydro-2H-pyran-2-yl)methanone] — within 1.5-fold, 0.213 µM
- O=C([C@@H]1CC[C@H](NCCO)CO1)N1CCc2ccccc2[C@@H]1c1ccc(F)cc1 [Compound 5033, ((S)-1-(4-fluorophenyl)-3,4-dihydroisoquinolin-2(1H)-yl)((2S,5S)-5-((2-hydroxyethyl)amino)tetrahydro-2H-pyran-2-yl)methanone] — 1.7-fold lower, 0.163 µM
- O=C([C@H]1CC[C@H](NCCO)CO1)N1CCc2ccccc2[C@@H]1c1ccc(F)cc1 [Compound 5034, ((S)-1-(4-fluorophenyl)-3,4-dihydroisoquinolin-2(1H)-yl)((2R,5S)-5-((2-hydroxyethyl)amino)tetrahydro-2H-pyran-2-yl)methanone] — 1.5-fold lower, 0.185 µM
- COCCN[C@@H]1CC[C@@H](C(=O)N2CCc3ccccc3[C@@H]2c2ccc(F)cc2)OC1 [Compound 5035, ((S)-1-(4-fluorophenyl)-3,4-dihydroisoquinolin-2(1H)-yl)((2S,5R)-5-((2-methoxyethyl)amino)tetrahydro-2H-pyran-2-yl)methanone] — within 1.5-fold, 0.371 µM
- CCNC[C@]1(O)CO[C@@H](C(=O)N2CCc3ccccc3[C@@H]2c2ccc(F)cc2)C1 [Compound 5036, ((2R,4S)-4-((ethylamino)methyl)-4-hydroxytetrahydrofuran-2-yl)((S)-1-(4-fluorophenyl)-3,4-dihydroisoquinolin-2(1H)-yl)methanone] — within 1.5-fold, 0.356 µM
- CCNC[C@@]1(O)CO[C@@H](C(=O)N2CCc3ccccc3[C@@H]2c2ccc(F)cc2)C1 [Compound 5037, ((2R,4R)-4-((ethylamino)methyl)-4-hydroxytetrahydrofuran-2-yl)((S)-1-(4-fluorophenyl)-3,4-dihydroisoquinolin-2(1H)-yl)methanone] — within 1.5-fold, 0.339 µM
- O=C([C@H]1C[C@](O)(CNCCO)CO1)N1CCc2ccccc2[C@@H]1c1ccc(F)cc1 [Compound 5041, ((S)-1-(4-fluorophenyl)-3,4-dihydroisoquinolin-2(1H)-yl)((2R,4S)-4-hydroxy-4-(((2-hydroxyethyl)amino)methyl)tetrahydrofuran-2-yl)methanone] — within 1.5-fold, 0.294 µM
- N[C@H]1CO[C@H](C(=O)N2CCc3ccccc3[C@@H]2c2ccc(F)cc2)C[C@H]1O [Compound 5043, ((2S,4R,5S)-5-amino-4-hydroxytetrahydro-2H-pyran-2-yl)((S)-1-(4-fluorophenyl)-3,4-dihydroisoquinolin-2(1H)-yl)methanone] — 4.3-fold lower, 0.064 µM
- N[C@H]1CO[C@H](C(=O)N2CCc3ccccc3[C@@H]2c2ccc(F)cc2)OC1 [Compound 5048, (trans-5-amino-1,3-dioxan-2-yl)((S)-1-(4-fluorophenyl)-3,4-dihydroisoquinolin-2(1H)-yl)methanone] — 2.1-fold higher, 0.575 µM
- N[C@H]1CO[C@@H](C(=O)N2CCc3ccccc3[C@@H]2c2ccc(F)cc2)OC1 [Compound 5049, (cis-5-amino-1,3-dioxan-2-yl)((S)-1-(4-fluorophenyl)-3,4-dihydroisoquinolin-2(1H)-yl)methanone] — within 1.5-fold, 0.258 µM
- CCN[C@H]1CO[C@@H](C(=O)N2CCc3ccccc3[C@@H]2c2ccc(F)cc2)OC1 [Compound 5050, (cis-5-(ethylamino)-1,3-dioxan-2-yl)((S)-1-(4-fluorophenyl)-3,4-dihydroisoquinolin-2(1H)-yl)methanone] — within 1.5-fold, 0.35 µM
- N[C@H]1C[C@H](C(=O)N2CCc3ccccc3[C@@H]2c2ccc(F)cc2)OC[C@H]1O [Compound 5051, ((2R,4S,5S)-4-amino-5-hydroxytetrahydro-2H-pyran-2-yl)((S)-1-(4-fluorophenyl)-3,4-dihydroisoquinolin-2(1H)-yl)methanone] — 46-fold lower, 0.006 µM
